# Results from patent US11999745B2, “Pharmaceutical compounds” (Heptares Therapeutics Limited, priority 2020, dated 2024).
# Read-outs that look alike come from different tables or passages of the source.
# Assays:
# [1] = molecular target: T1, human muscarinic M1 receptor (Homo sapiens, UniProt P11229); assay: Alphascreen Surefire phospho-ERK1/2 functional assay, M1; type: cell-based
# T1 construct: expressed in transfected cells
# T1 sequence (P11229 1-460): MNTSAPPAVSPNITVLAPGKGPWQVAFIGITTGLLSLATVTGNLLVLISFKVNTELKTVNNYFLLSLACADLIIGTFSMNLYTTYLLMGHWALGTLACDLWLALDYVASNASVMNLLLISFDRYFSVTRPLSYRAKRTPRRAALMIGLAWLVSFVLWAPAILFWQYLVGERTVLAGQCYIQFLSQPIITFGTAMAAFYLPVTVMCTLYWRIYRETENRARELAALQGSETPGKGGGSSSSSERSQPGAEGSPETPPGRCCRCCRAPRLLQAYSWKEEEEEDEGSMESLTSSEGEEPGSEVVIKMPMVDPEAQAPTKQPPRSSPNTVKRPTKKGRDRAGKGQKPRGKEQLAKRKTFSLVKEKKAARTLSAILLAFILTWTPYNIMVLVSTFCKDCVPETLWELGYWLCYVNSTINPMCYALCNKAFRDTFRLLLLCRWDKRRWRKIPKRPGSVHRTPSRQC
# Experimental: ERK1/2 phosphorylation is a downstream consequence of both Gq/11 and Gi/o protein coupled receptor activation, making it highly suitable for the assessment of M1, M3 (Gq/11 coupled) and M2, M4 receptors (Gi/o coupled), rather than using different assay formats for different receptor subtypes. CHO cells stably expressing the human muscarinic M1, M2, M3 or M4 receptor were plated (25K/well) onto 96-well tissue culture plates in MEM-alpha+10% dialysed FBS. Once adhered, cells were serum-starved overnight. Agonist stimulation was performed by the addition of 5 μL agonist to the cells for 5 min (37° C.). Media was removed and 50 μL of lysis buffer added.
# [2] = Hepatocyte stability, CLint (in vitro hepatocytes), dog; type: in vitro ADME; conditions: pooled cryopreserved hepatocytes, 1.0 million cells/mL, 37° C., read-out: in vitro intrinsic clearance (CLint)
# Experimental: (§1) Hepatocyte stability assays were performed using pooled cryopreserved hepatocytes (Bioreclamation). Test compounds prepared in DMSO, were incubated at an initial concentration of 1 μM (0.25% DMSO final, n=2) with hepatocytes at cell densities of 1.0 million cells/mL at 37° C. Aliquots were removed at 0.5, 5, 10, 15, 30, 60 and 120 minutes for termination of reactions and compound extraction with acetonitrile containing an analytical internal standard (0.5 μM carbamazepine). Samples were centrifuged and the supernatant fractions analysed for parent compound by mass spectrometry (LC-MS/MS). The amount of compound remaining (expressed as %) was determined from the MS response in each sample relative to that in the T=0 samples (normalised for internal standard). Ln plots of the % remaining were used to determine the half-life for compound disappearance using the relationship: Half-Life(min)=−0.693/λ (where λ is the slope of the Ln % remaining vs time curve).
# [3] = Hepatocyte stability, CLint (in vitro hepatocytes), monkey; type: in vitro ADME; conditions: pooled cryopreserved hepatocytes, 1.0 million cells/mL, 37° C., read-out: in vitro intrinsic clearance (CLint)
# Experimental: as §1
# [4] = Hepatocyte stability, CLint (in vitro hepatocytes), human; type: in vitro ADME; conditions: pooled cryopreserved hepatocytes, 1.0 million cells/mL, 37° C., read-out: in vitro intrinsic clearance (CLint)
# Experimental: as §1
# [5] = Fraction unbound (fu) in plasma or brain tissue homogenate; type: in vitro ADME; conditions: parameter used in receptor occupancy prediction
# Source text: fu—fraction of compound unbound in plasma or brain tissue homogenate
compound,measurement,setting,value
"CC(C)(C)NC(=O)C1CCN([C@H]2C[C@H]3CC[C@@H](C2)N3c2nc(C(F)(F)F)no2)CC1 [Example 1, N-tert-butyl-1-{(1R,3r,5S)-8-[3-(trifluoromethyl)-1,2,4-oxadiazol-5-yl]-8-azabicyclo[3.2.1]octan-3-yl}piperidine-4-carboxamide]",EC50,"[1]; CHO cells stably expressing human M1, phospho-ERK1/2, read-out: pEC50 M1 (converted)",0.0676 µM
same,EC50,"[1]; as quoted in FIG. 1 legend, 50% target engagement, read-out: recombinant human EC50 (M1) (converted)",0.0652 µM
same,EC50,"[1]; recombinant human EC50 (M1), as quoted in FIG. 1 legend, 50% target engagement",0.086 µM
same,hepatocyte CLint at 1 μM,[2],8 µL/min/1e6 cells
same,hepatocyte CLint at 1 μM,[3],< 5 µL/min/1e6 cells
same,hepatocyte CLint at 1 μM,[4],< 5 µL/min/1e6 cells
same,fraction unbound,[5],0.682
